The numbers were not newly measured in patent publication US12115139B2, “Treatment methods and processes for an infected nail” (priority 2018, dated 2024), which cites them from elsewhere.

Where “and” joins values, the source holds several entries; their conditions need not be identical. Equal entries are not always repeated. Structures can show the parent of a compound that is named as a salt.

For this series, the system named is nail infections. The conditions noted are these: for side effects compared with Lamisil: oral treatment.

As for `C[C@@H](n1cnc2cc(Cl)ccc2c1=O)[C@](O)(Cn1cncn1)c1ccc(F)cc1F` [Albaconazole], the “side effects compared with Lamisil” value is “fewer side effects”.

Take `CCC(C)(C)c1ccc(CC(C)CN2C[C@@H](C)O[C@@H](C)C2)cc1` (stereo partly shown) [Amorolfine, amorolfine]: the “effectiveness against severe nail infections” value (topical, severe nail infections involving the nail bed) is given as “not effective”.

Take `Cc1cc(C2CCCCC2)n(O)c(=O)c1` [Ciclopirox, ciclopirox]: the cure rate entry (topical, 8% strength) is reported as “about 8.5%”.

Regarding `CN(C/C=C/C#CC(C)(C)C)Cc1cccc2ccccc12` [Lamisil, terbinafine hydrochloride], the mycological cure rate (oral treatment of nail infections) was 46%.

`CC[C@@H]([C@H](C)O)n1ncn(-c2ccc(N3CCN(c4ccc(OC[C@@H]5CO[C@@](Cn6cncn6)(c6ccc(F)cc6F)C5)cc4)CC3)cc2)c1=O` [Posaconazole]: the “side effects compared with Lamisil” value is on record as “fewer side effects”.

For the molecule `OB1OCc2cc(F)ccc21` [Tavaborole, tavaborole], under “topical, share of the 600 patients in the study”, the complete cure is listed as 6%.

With `C=C1CCN([C@H](C)[C@](O)(Cn2cncn2)c2ccc(F)cc2F)CC1` [efinaconazole], where the note is “topical, only mild infections not involving the nail bed”, the cure rates is 17.8% and 15.2%.
